Test results taken from patent publication US20050119316A1, “Semicarbazide derivatives and the use thereof as antithrombotics” (Merch Patent GmbH, priority 2002, published 2005).

Assays:
[1] = target: FXa (Homo sapiens, UniProt P00742); test: Inhibition of factor Xa (Table 1, affinity to receptors); type: biochemical
Source text: The inhibition of factor Xa by the compounds according to the invention and the measurement of the anticoagulant and antithrombotic activity can be determined by conventional in-vitro or in-vivo methods. A suitable method is described, for example, by J. Hauptmann et al. in Thrombosis and Haemostasis 1990, 63, 220-223.
The inhibition of factor Xa can be measured, for example, by the method of T. Hara et al. in Thromb. Haemostas. 1994, 71, 314-319.

[2] = target: TF/FVIIa (Homo sapiens, UniProt P08709); test: Inhibition of TF/factor VIIa (Table 1, affinity to receptors); type: biochemical
Source text: The inhibition of factor VIIa by the compounds according to the invention and the measurement of the anticoagulant and antithrombotic activity can be determined by conventional in-vitro or in-vivo methods. A conventional method for the measurement of the inhibition of factor VIIa is described, for example, by H. F. Ronning et al. in Thrombosis Research 1996, 84, 73-81.

Sequence of TF/FVIIa (P08709 213-466 limits assumed): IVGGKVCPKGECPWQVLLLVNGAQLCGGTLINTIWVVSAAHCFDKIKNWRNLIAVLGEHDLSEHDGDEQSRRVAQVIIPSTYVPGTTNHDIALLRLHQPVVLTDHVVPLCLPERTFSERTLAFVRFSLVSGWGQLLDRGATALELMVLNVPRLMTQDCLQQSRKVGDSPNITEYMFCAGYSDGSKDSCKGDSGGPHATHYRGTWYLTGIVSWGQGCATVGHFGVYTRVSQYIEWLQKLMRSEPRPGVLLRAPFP
Sequence of TF/FVIIa (P08709 61-212 partner limits assumed): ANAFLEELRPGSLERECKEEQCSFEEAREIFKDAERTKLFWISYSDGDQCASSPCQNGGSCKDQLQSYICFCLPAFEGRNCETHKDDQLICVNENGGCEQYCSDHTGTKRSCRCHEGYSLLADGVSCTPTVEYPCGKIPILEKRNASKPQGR
Sequence of TF/FVIIa (P13726 33-295 partner): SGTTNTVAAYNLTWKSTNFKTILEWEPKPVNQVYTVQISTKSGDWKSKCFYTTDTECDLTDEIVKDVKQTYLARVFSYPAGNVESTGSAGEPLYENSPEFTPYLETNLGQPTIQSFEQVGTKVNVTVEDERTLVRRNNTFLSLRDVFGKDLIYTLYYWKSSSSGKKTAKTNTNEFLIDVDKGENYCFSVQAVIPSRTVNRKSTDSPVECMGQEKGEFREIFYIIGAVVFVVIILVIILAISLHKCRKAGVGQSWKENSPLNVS
Sequence of FXa (P00742 235-488 limits assumed): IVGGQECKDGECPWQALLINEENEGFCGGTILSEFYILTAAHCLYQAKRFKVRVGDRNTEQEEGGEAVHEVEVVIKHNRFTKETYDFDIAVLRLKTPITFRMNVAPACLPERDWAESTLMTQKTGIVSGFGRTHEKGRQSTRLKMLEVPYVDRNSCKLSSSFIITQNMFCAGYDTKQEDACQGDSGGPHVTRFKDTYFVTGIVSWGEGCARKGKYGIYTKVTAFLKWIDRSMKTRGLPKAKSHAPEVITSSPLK
Sequence of FXa (P00742 41-179 partner limits assumed): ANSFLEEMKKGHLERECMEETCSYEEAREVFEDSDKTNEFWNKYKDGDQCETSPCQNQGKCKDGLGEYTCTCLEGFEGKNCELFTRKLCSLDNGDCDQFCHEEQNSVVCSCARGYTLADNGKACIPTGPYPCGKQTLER

Compound | IC50 [1] | IC50 [2]
CS(=O)(=O)c1ccccc1-c1ccc(NC(=O)NN(c2ccccc2)c2cccc(C(N)=NO)c2)c(F)c1 [Compound 8, 1-(3-N-hydroxyamidinophenyl)-4-(3-fluoro-2′-methylsulfonylbiphenyl-4-yl)-1-phenylsemicarbazide] | 3.8 µM | 8.8 µM
CS(=O)(=O)c1ccccc1-c1ccc(NC(=O)NN(c2ccccc2)c2cccc(C(=N)N)c2)c(F)c1 [Compound 9, 1-(3-amidinophenyl)-4-(3-fluoro-2′-methylsulfonylbiphenyl-4-yl)-1-phenylsemicarbazide] | 0.028 µM | 0.012 µM
CS(=O)(=O)c1ccccc1-c1ccc(NC(=O)NN(c2ccccc2)c2cccc(CN)c2)c(F)c1 [Compound 10, 1-(3-aminomethylphenyl)-4-(3-fluoro-2′-methylsulfonylbiphenyl-4-yl)-1-phenylsemicarbazide] | 2.4 µM | 4.2 µM
